# Measured values: PubChem BioAssay AID179 (DTP/NCI, 2004)
# pEC50, pIC50: −log10 of the molar value. Activity calls are given as the source filed them.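 How the source made its calls: active means compounds giving half or more protection of infected cells from virus-caused growth loss, again on retest; inactive means the rest.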 Where a SMILES comes first, the peptide text is derived from it. [ ]: non-standard residue; d: D form. The star is where a group is joined. ξ: configuration not given here. ξF = NC(Cc1ccccc1)C(=O)O; Cbz = O=C(OCc1ccccc1)*; Boc = CC(C)(C)OC(=O)*; Aib = CC(C)(N)C(=O)O; OBn = c1ccc(CO*)cc1
# Tested on: CEM cells HIV-1 protection, formazan growth assay
# Assay: NCI AIDS Antiviral Assay
# Settings: for pIC50: measured here: growth of uninfected CEM cells
# Outline: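 Five concentrations of each compound were applied to infected and uninfected human CEM cells. Protection from HIV-1 was judged from growth measured with a soluble formazan assay.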
Structure (SMILES),pEC50,pIC50,outcome
O=C1C/C(=C\c2ccccc2)C(=O)c2ccccc2N1,< 3.70,4.90,
CC(C)CCCC(C)[C@H]1CC[C@H]2[C@@H]3CC[C@H]4C[C@@H](CCC=C(c5cc(Cl)c(OCC(=O)O)c(C(=O)O)c5)c5cc(Cl)c(OCC(=O)O)c(C(=O)O)c5)CC[C@]4(C)[C@H]3CC[C@]12C (stereo not given in full),4.04,< 4.00,
CC(C)(C)/C(CC(=O)CCC(=O)Nc1ccc(Cl)cc1)=N\NC(N)=S,,,inactive
CCOC(=O)C1=CN/C(=C(/C)C(=O)OC)SC1C(=O)OCC (stereo not given),< 3.70,4.43,
CCCCc1c2c(nc3c1CCc1cc4cc5c(nc4nc1-3)-c1nc3c(c(CCCC)c1CC5)CCCC3)CCCC2,< 6.01,< 6.01,
COc1ccc2c(-c3cc4ccccc4o3)cc(=O)oc2c1,,,inactive
O=c1[nH]c2nc3ccccc3c(=O)n2/c1=C/c1ccc(O)cc1,< 3.70,4.28,
Cc1ccc(C(=O)c2ccccc2C(=O)O)cc1C,< 3.70,< 3.70,
O=C(CCC(NC(=O)OCc1ccccc1)C(=O)OCc1ccccc1)Nc1cccc(OCc2ccccc2)c1 (stereo not given),< 3.70,4.45,
Cn1c2c(c3ccccc31)CCN1C(=O)CCC21 (stereo not given),< 3.27,3.54,
O=C1C(c2ccccc2)=[N+]([O-])c2ccc(Cl)cc21,,,inactive
CCOC(=O)CO/N=C\C1=CC(=O)C2CC1C2(C)C (stereo not given),< 3.70,< 3.70,
SC1N=C(c2ccco2)N2C(S)N=C(c3ccccc3)N12 (stereo not given),< 3.70,3.74,
Cc1ccccc1-c1nc(/C=C2\C(=O)C=Cc3ccccc32)c(O)o1,< 3.70,< 3.70,
COC(=O)N/N=c1\cc(C(=O)Nc2ccc(C)c(C)c2)oc2cc(O)ccc12,< 3.18,3.24,
Cc1cccc(NC2=NCCO2)c1Cl,< 3.70,3.98,
O=C(/C=C/c1ccccc1)NC1C=Nc2ccccc2NC1=O (stereo not given),3.83,< 3.70,
O=S(=O)(F)c1ccc(C[P+](c2ccccc2)(c2ccccc2)c2ccccc2)c(Cl)c1,< 3.70,4.34,
CCc1cc2c(c3c1CCC3=O)CC1(Cc3ccc(C)cc3C1)C2 (stereo not given),< 3.70,3.87,
Cc1ccc(/C=C2\CCC/C(=C\c3ccc(O)c(CN4CCCCC4)c3)C2=O)cc1,< 4.00,,
COC(=O)C(C)(C)NC(=O)C(Cc1ccccc1)NC(=O)C(C)(C)NC(=O)OCc1ccccc1 (stereo not given) (Cbz-[Aib]-[ξF]-[Aib]-OMe),3.71,3.13,

Structure (SMILES),pEC50,pIC50,outcome
C=CC1(O)CC(n2cc(C)c(=O)[nH]c2=O)OC1CO (stereo not given),< 3.70,< 3.70,
CCOC(=O)c1ccc(-n2nc(C)cc(Cl)c2=O)cc1,< 3.91,4.63,
O=C1C2C=CC1C1C(=O)OC(=O)C21 (stereo not given),,,inactive
CC(=N\N=C(N)N)/C(N=Nc1ccc(S(N)(=O)=O)cc1)=N\N=C(N)N,< 3.70,5.80,
CN(C)CC/C(=N\Nc1c(F)c(F)c(F)c(F)c1F)c1ccccc1,,,inactive
O=c1oc2c(c(=O)n1-c1ccccc1)CC1(CCCCC1)C2,< 3.70,< 3.70,
COC(=O)C(=O)C(C(C)=O)C(=O)NCc1ccccc1 (stereo not given),4.32,4.17,
COC(=O)C1=CC[C@@H]2C(C(=O)O)=CO[C@@H](OC3OC(CO)C(O)C(O)C3O)[C@H]12 (stereo not given in full),< 3.70,< 3.70,
O=C1c2ccccc2C2CCC1c1ccccc12 (stereo not given),< 4.49,4.58,
O=C(NC1CCCCC1)/C(=C\c1ccccc1)NC(=O)c1ccccc1,< 3.70,< 3.70,
COc1ccc(N(C)Sc2ccccc2)cc1,< 3.70,4.42,
CC1(C)OC2[C@@H](CO[C@@]3([C@@H](O)CCO)OC(C)(C)O[C@@H]23)O1 (stereo not given in full),< 3.70,< 3.70,
O=C(N/N=C/c1ccco1)c1cccnc1,< 3.70,< 3.70,
COC(=O)/C=C1/C2CC3CC(C2)C(O)C1C3 (stereo not given),,,inactive
C[N+](C)(N)c1nc(N)c(C#N)c(C#N)c1C#N,< 3.70,4.48,
CCOC(=O)NN1C(=O)c2cccc3c([N+](=O)[O-])ccc(c23)C1=O,< 5.70,6.65,
CCC(=O)c1ccc2c(c1)N(CCCN1CCN(CCO)CC1)c1ccccc1S2,< 3.70,5.03,
CC(NC(=O)C(C)(C)NC(=O)C(CC(=O)OCc1ccccc1)NC(=O)OCc1ccccc1)C(N)=O (stereo not given) (Cbz-Asp(OBn)-[Aib]-Ala-NH2; configuration not given here),< 3.70,< 3.70,
CN=c1ss/c(=N\C(=S)N(C)C)n1C1CCCCC1,,,inactive
O=C(C(/C=N/C(=S)NC1C(=O)Nc2ccccc21)=C(/O)c1ccccc1)c1ccccc1 (stereo not given),< 3.70,4.38,
CCOC(=O)C1C(=O)CC(O)(OCC)C(C(=O)OCC)C1c1ccc(OC)cc1 (stereo not given),< 3.70,< 3.70,

Structure (SMILES),pEC50,pIC50,outcome
COc1cc(-c2ccc(N=Nc3c(S(=O)(=O)O)cc4cc(S(=O)(=O)O)cc(N)c4c3O)c(OC)c2)ccc1N=Nc1c(S(=O)(=O)O)cc2cc(S(=O)(=O)O)cc(N)c2c1O,,,active
c1ccc(SCCP(CCP(c2ccccc2)c2ccccc2)c2ccccc2)cc1 (stereo not given),< 4.66,6.45,
N#CCCN1C(=O)CCC2(CCC(=O)N(CCC#N)C2=O)C1=O,< 3.10,< 3.10,
CC(C)Oc1c(C2(c3ccccc3O)SCCCS2)c(=O)c1=O,< 3.70,3.95,
N#CC(C#N)=c1cc/c(=c2/ccc(=C(C#N)C#N)s2)s1,< 4.61,< 4.61,
COc1cc(OC)cc(Oc2nc3c(N)cc(C(F)(F)F)cc3nc2-c2ccccc2)c1,< 3.70,< 3.70,
CC1OC(=O)N(CCCC=C2SCCCS2)C1=O (stereo not given),,,inactive
Cc1ccc(-n2c(=S)n(-c3ccccc3C)c3nc4ccccc4nc2/c3=N\Nc2ccccc2)cc1,< 3.70,3.91,
COc1ccc([C@H]2CC(=O)C[C@H](c3ccc(OC)cc3OC)C23C(=O)c2ccccc2C3=O)c(OC)c1,< 3.70,3.82,
O=P(N1CC1)(N1CC1)N1CC2CCC(CC2)C1,< 3.70,5.79,
Cc1ccc(SSCCCS(=O)O)cc1,,,inactive
CCC(=O)OC1C(OC2C(C)C(OC3CC(C)(OC)C(O)C(C)O3)C(C)C(=O)OC(CC)C(C)(O)C(O)C(C)C(=O)C(C)CC2(C)O)OC(C)CC1N(C)C (stereo not given),< 3.70,4.15,
O=C(CC(=O)c1ccc([N+](=O)[O-])cc1)C(=O)Nc1nccs1,< 3.73,3.81,
CCOC(=O)c1c(-c2ccc(OC)c(O)c2)c(C#N)c(=S)n(C2OC(CO)C(O)C(O)C2O)c1-c1ccccc1 (stereo not given),< 3.70,< 3.70,
O=S(=O)(OCCCCOS(=O)(=O)c1ccc(Cl)c(Cl)c1)c1ccc(Cl)c(Cl)c1,,,inactive
COC(=O)C(CCCN1C(=O)c2ccccc2C1=O)C(=O)OC,,,inactive
CC(/C=C/c1ccccc1)=N/NS(=O)(=O)c1ccc([N+](=O)[O-])cc1,< 4.82,< 4.82,
COC(=O)C(Cc1c[nH]c2ccccc12)NC(=O)C(Cc1c[nH]c2ccccc12)NC(=O)C(Cc1c[nH]c2ccccc12)NC(=O)OC(C)(C)C (stereo not drawn) (Boc-Trp-Trp-Trp-OMe; configuration not given here),< 3.70,4.53,
O=S1(c2ccccc2)=NC(Nc2ccccc2)=Nc2ccccc21 (stereo not given),< 4.44,4.52,
O=C(/C(=C/c1cccc(Cl)c1)c1ccccc1)c1ccccc1,< 5.07,< 5.07,
O=c1/c(=C/c2c(O)ccc3ccccc23)sc2nc3ccccc3n12,,,inactive

Structure (SMILES),pEC50,pIC50,outcome
c1cc[c]([Pb]([c]2ccccc2)[c]2ccccc2)cc1,,,inactive
COc1cc2c(c(OC)c1OC)-c1ccc(OC)c(=O)cc1C(NC(=O)COc1ccccc1)CC2 (stereo not given),< 6.70,8.60,
O=C1/C(=C/c2ccccc2)CSC/C1=C\c1ccccc1,< 3.70,5.62,
N#CCCC1C(C#N)C2(Cl)CC1(Cl)C(Cl)=C2Cl (stereo not given),< 3.70,4.63,
CN1[C@H]2C=CC(=O)[C@]1(Cl)[C@H]1C(=O)N(c3ccccc3)C(=O)[C@@H]21,< 3.79,5.41,
COC[C@H]1c2cc(O)c(OCc3ccccc3)cc2O[C@@H]1c1ccc(OC)cc1,< 3.70,4.71,
CC(=O)OCC1OC(OCC2OC(N3C(=S)N[C@H]([C@@H](O)[C@H](O)[C@H](O)CO)[C@H]3O)C(OC(C)=O)C(OC(C)=O)C2OC(C)=O)C(OC(C)=O)C(OC(C)=O)C1OC(C)=O (stereo not given in full),< 4.00,< 4.00,
CCOC(=O)c1nn(Cc2ccccc2)c(=S)[nH]c1=O,,3.91,inactive
O=C1CN(CCN2CCOCC2)CC(=O)N2Cc3ccccc3CN12,< 3.70,< 3.70,
O=C(NCCNCCNC(=O)C(F)(F)F)C(F)(F)F,< 3.70,< 3.70,
CC1=N/C(=C\c2cccc(F)c2)C(=O)O1,< 3.90,< 3.90,
CC(=O)/C(=C/N1CC(=O)NC1=S)C(=O)Nc1ccccc1C,< 3.70,< 3.70,
C/C(=N/NC(N)=S)C(CN(C)C)C(C1=C(O)c2ccccc2OC1)c1ccccc1 (stereo not given),< 3.85,3.97,
O=C(/C=C/c1ccccc1)NC1C=Nc2ccc([N+](=O)[O-])cc2NC1=O (stereo not given),< 3.99,4.03,
C[C@]12CC[C@H](OC(=O)CCC(=O)O)CC1=CC[C@@H]1C2CC[C@@]2(C)C1CC[C@@H]2c1nc(-c2ccccc2)cs1 (stereo not given in full),< 4.33,4.76,
CC1C/C(=N\N(C)C)C(C#N)(C#N)C1(C#N)C#N (stereo not given),< 3.70,5.22,
CC(C)C(NC(=O)Oc1ccccc1)C(=O)NC1c2c(Br)sc(Br)c2C(=O)C1O (stereo not given),< 3.70,4.93,
COC(=O)c1ccc(/C=C2\CCc3ccccc3C2=O)cc1,< 3.70,< 3.70,
CC1=CC(Nc2ccc(S(=O)(=O)c3ccc(NC4=NCCNC(C)=C4)cc3)cc2)=NCCN1,< 3.70,< 3.70,
O=[N+]([O-])c1cc(C(F)(F)F)cc([N+](=O)[O-])c1CCl,,,inactive
